Common to all, as to details: hop acids 2 ppm, monensin 6 ppm
The test system of one test is Isotrichia. The test can be described thus: In vitro microbe measurements: protozoa count, Isotrichia.
For another test, the system named is Entodiniomorph spp. Nature of the test: In vitro microbe measurements: protozoa count, Entodiniomorph spp / Entodinia.
The subject of the next test is total bacteria. Nature of the test: In vitro microbe measurements: bacterial purine (measurement of total bacteria). Type of test: cell-based. From the text: Proprionate is largely responsible for animal growth. […] There appears to be no effect on alfalfa protozoa and alfalfa bacterial purine by the beta acids. Again, reduction in protozoa and bacteria levels means more food and energy for animal growth.

The structures appear in SMILES notation. Marks after values point to notes of the source that are not given here.

`CC[C@@]1([C@@H]2O[C@@H]([C@H]3O[C@@](O)(CO)[C@H](C)C[C@@H]3C)C[C@@H]2C)CC[C@H]([C@]2(C)CC[C@]3(C[C@H](O)[C@@H](C)[C@@H]([C@@H](C)[C@@H](OC)[C@H](C)C(=O)O)O3)O2)O1` [monensin]: in the test with Isotrichia (alfalfa), the “Protozoa, Isotrichia” value is given as 0^c × 10^3 no/mL. The “Protozoa, Isotricha” value with Isotrichia (barley) is recorded as 0 × 10^3 no/mL; with Isotrichia (corn), 0.7 × 10^3 no/mL. For the same molecule, the “Protozoa, Entodinia” value with Entodiniomorph spp (alfalfa) is recorded as 6^c × 10^3 no/mL; in the test on Entodiniomorph spp (barley), 38^b × 10^3 no/mL; with Entodiniomorph spp (corn), 28^bc × 10^3 no/mL. The Bacterial purines is listed as 2.6^c mg/tube in the test on total bacteria (alfalfa), 1.5^b mg/tube in the test on total bacteria (barley) and 1.4^a Mg/tube in the test with total bacteria (corn). Further, the “Protozoa and bacterial purines versus control, in words” value in the test with total bacteria (alfalfa) is “most effectively eliminate”.

For the origin of these results see US20060134248A1, “Hop acids as a replacement for antibiotics in animal feed” (priority 2002, published 2006).
